The results in this text go back to ChEMBL document CHEMBL1201862, “PubChem BioAssay data set” (2004).

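The compound was tested at five concentrations on cells cultured in 96-well plates, with a 48-hour exposure period. At the GI50, growth is halved.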 Active and inactive are the calls of the source. No stated cut-off is given here; in the data, active = GI50 up to about 1.1 µM and inactive = higher.

Test systems include MDA-MB-435; HCT-15; NCI-H226; HCC 2998; SK-OV-3; OVCAR-8; KM12; SK-MEL-5; HL-60; NCI/ADR-RES; DU-145; MCF7; SNB-75; NCI-H460; A498; NCI-H522; EKVX; SN12C; SK-MEL-28.
Holding throughout (assay): DTP human tumour cell line panel, 48 h

By GI50 is commonly meant the concentration at which growth is held to half of that of the control.

Take `Cc1cc(C)n(C(=O)CSc2nc3ccc(I)cc3c(=O)n2Cc2ccccc2)n1`: the GI50 in the test on MDA-MB-435 is 73.6 µM (inactive); with HCT-15, 30.4 µM; with NCI-H226, 62.7 µM (inactive); with HCC 2998 it was 68.4 µM (inactive); with SK-OV-3, 58.9 µM (inactive); with OVCAR-8, 24.9 µM (inactive). Moreover, the GI50 was 50.2 µM (inactive) with KM12; 25.2 µM (inactive) in the test on SK-MEL-5; > 100 µM (inactive) in the test with HL-60; 36.6 µM (inactive) with NCI/ADR-RES; 42 µM (inactive) in the test on DU-145; 96.6 µM (inactive) with MCF7. In addition, the GI50 in the test on SNB-75 was 25.3 µM (inactive); with NCI-H460, 36.4 µM (inactive); in the test with A498 it was 22.9 µM (inactive); with NCI-H522, 20.1 µM (inactive); in the test with EKVX it was 24 µM (inactive); with SN12C it was 51.8 µM (inactive). Also, the GI50 in the test on SK-MEL-28 was > 100 µM (inactive).

Consider `CC(C)(CO)CNc1cc(=O)[nH]c(N)n1`, for which the GI50 is > 100 µM (inactive) in the test with MDA-MB-435; over 100 µM in the test on HCT-15; > 100 µM (inactive) in the test with NCI-H226; > 100 µM (inactive) in the test with HCC 2998; > 100 µM (inactive) with SK-OV-3; > 100 µM (inactive) in the test with OVCAR-8. Moreover, the GI50 in the test with KM12, with SK-MEL-5, in the test with HL-60, in the test with NCI/ADR-RES, with DU-145 and with MCF7 was > 100 µM (inactive) in each case. In addition, the GI50 with SNB-75, in the test with NCI-H460, in the test on A498, with NCI-H522, in the test with EKVX and in the test with SN12C was > 100 µM (inactive) throughout. In the test with SK-MEL-28, the GI50 was > 100 µM (inactive).

In the case of `O=[N+]([O-])c1ccc2nc(-c3ccccn3)c(-c3ccccn3)nc2c1`, the GI50 in the test with MDA-MB-435 was > 100 µM (inactive); with HCT-15, 43 µM; with NCI-H226 it was > 100 µM (inactive); in the test with HCC 2998, > 100 µM (inactive); in the test with SK-OV-3, > 100 µM (inactive); in the test on OVCAR-8 it was 94 µM (inactive). Also, the GI50 in the test on KM12 is > 100 µM (inactive); in the test with SK-MEL-5 it was 24.4 µM (inactive); with HL-60, 28 µM (inactive); with NCI/ADR-RES, > 100 µM (inactive); in the test with DU-145, > 100 µM (inactive); in the test on MCF7 it was 57.7 µM (inactive). The GI50 in the test on SNB-75 is > 100 µM (inactive); with NCI-H460, 45.7 µM (inactive); in the test on A498, > 100 µM (inactive); with NCI-H522 it was 44.9 µM (inactive); in the test with EKVX it was 71 µM (inactive); in the test on SN12C, > 100 µM (inactive). Besides, the GI50 with SK-MEL-28 was > 100 µM (inactive).

For `CC1(CF)SCc2nc3ccccc3n21` (centres undefined), the GI50 in the test with MDA-MB-435 is > 100 µM (inactive); in the test with HCT-15 it was over 100 µM; in the test on NCI-H226, > 100 µM (inactive); with HCC 2998 it was > 100 µM (inactive); in the test on SK-OV-3, > 100 µM (inactive); with OVCAR-8, > 100 µM (inactive). Also, the GI50 in the test on KM12, in the test on SK-MEL-5, in the test with HL-60, in the test on NCI/ADR-RES, in the test on DU-145 and with MCF7 was > 100 µM (inactive) in each case. The GI50 in the test on SNB-75, with NCI-H460, in the test on A498, in the test with NCI-H522, in the test on EKVX and in the test on SN12C was > 100 µM (inactive) each time. Further, in the test with SK-MEL-28, the GI50 was > 100 µM (inactive).

Take `CC(C)=CCC[C@@H](C)C1=CC(=O)C(C)=C(O)C1=O` [ISOPEREZONE]: the GI50 with MDA-MB-435 was 4.31 µM (inactive); in the test with HCT-15, 2.66 µM; in the test on NCI-H226, 7.19 µM (inactive); in the test with HCC 2998, 17.1 µM (inactive); in the test with SK-OV-3, 17.9 µM (inactive); with OVCAR-8 it was 2.15 µM (inactive). The GI50 in the test with KM12 is 5.09 µM (inactive); with SK-MEL-5, 6.12 µM (inactive); in the test on HL-60, 0.3 µM (active); in the test on NCI/ADR-RES, 3.19 µM (inactive); in the test with DU-145 it was 6.08 µM (inactive); with MCF7 it was 3.62 µM (inactive). For the same compound, the GI50 in the test on SNB-75 was 4.5 µM (inactive); with NCI-H460 it was 16.3 µM (inactive); with A498 it was 17 µM (inactive); in the test on NCI-H522, 1.36 µM (inactive); in the test with EKVX, 5.56 µM (inactive); with SN12C, 10.7 µM (inactive). The GI50 in the test on SK-MEL-28 was 11 µM (inactive).

As to `OC(Cc1cccnc1)(c1ccccc1)c1ccccc1`, the GI50 in the test on MDA-MB-435 is 47 µM (inactive); in the test on HCT-15 it was over 100 µM; with NCI-H226, > 100 µM (inactive); in the test on HCC 2998, > 100 µM (inactive); in the test on SK-OV-3, > 100 µM (inactive); in the test on OVCAR-8, > 100 µM (inactive). In addition, the GI50 is 59.7 µM (inactive) in the test on KM12; 32.9 µM (inactive) in the test with SK-MEL-5; 55.5 µM (inactive) in the test on HL-60; 57.9 µM (inactive) with NCI/ADR-RES; > 100 µM (inactive) in the test on DU-145; > 100 µM (inactive) in the test on MCF7. Besides, the GI50 with SNB-75 is > 100 µM (inactive); in the test on NCI-H460, > 100 µM (inactive); with A498, > 100 µM (inactive); in the test on NCI-H522 it was 47 µM (inactive); in the test on EKVX, 17.8 µM (inactive); in the test on SN12C, > 100 µM (inactive). Besides, the GI50 with SK-MEL-28 is > 100 µM (inactive).

Take `CC(=O)OC(CC(C)C)P1(=O)N(CC(C)(C)C)[C@@H]2CCCC[C@H]2N1CC(C)(C)C` (some centres undefined): the GI50 with MDA-MB-435 is 12.3 µM (inactive); with HCT-15, 9.82 µM; in the test with NCI-H226, 10.4 µM (inactive); in the test with HCC 2998, 6.38 µM (inactive); with SK-OV-3, 15.1 µM (inactive); in the test on OVCAR-8 it was 8.2 µM (inactive). Further, the GI50 was 9.66 µM (inactive) with KM12; 9.4 µM (inactive) in the test with SK-MEL-5; 5.71 µM (inactive) with HL-60; 8.3 µM (inactive) in the test with NCI/ADR-RES; 15.3 µM (inactive) in the test on DU-145; 6.35 µM (inactive) in the test with MCF7. The GI50 in the test with SNB-75 was 7.55 µM (inactive); with NCI-H460, 8.57 µM (inactive); with A498 it was 7.06 µM (inactive); in the test with NCI-H522 it was 6.4 µM (inactive); with EKVX, 11.2 µM (inactive); in the test on SN12C, 10.7 µM (inactive). Moreover, the GI50 in the test with SK-MEL-28 was 14.2 µM (inactive).

Regarding `C=CCOc1cccc(C2(O)c3ccccc3C3=NCCCN32)c1` (centres undefined), the GI50 is 13 µM (inactive) in the test with MDA-MB-435; 20.6 µM in the test with HCT-15; 3.38 µM (inactive) in the test on NCI-H226; 14.5 µM (inactive) in the test on HCC 2998; 37.7 µM (inactive) with SK-OV-3; 14.4 µM (inactive) in the test on OVCAR-8. Besides, the GI50 was 7.48 µM (inactive) in the test on KM12; 17 µM (inactive) in the test with SK-MEL-5; 1.47 µM (inactive) with HL-60; > 35.2 µM (inactive) with NCI/ADR-RES; 41.2 µM (inactive) in the test with DU-145; 16.8 µM (inactive) with MCF7. Besides, the GI50 was 5.06 µM (inactive) with SNB-75; 16.8 µM (inactive) with NCI-H460; 21.8 µM (inactive) in the test with A498; 19.5 µM (inactive) with NCI-H522; 3.77 µM (inactive) in the test on EKVX; 31.1 µM (inactive) in the test on SN12C. The GI50 with SK-MEL-28 was 5.51 µM (inactive).

Regarding `CSc1ccc2c(cc1=O)[C@@H](NC(=O)c1ccc([N+](=O)[O-])cc1)CCc1cc(O)c(O)c(O)c1-2`, the GI50 was 16.6 µM (inactive) in the test on MDA-MB-435; 30.4 µM in the test on HCT-15; 46.5 µM (inactive) in the test with NCI-H226; > 100 µM (inactive) in the test with HCC 2998; > 100 µM (inactive) with SK-OV-3; 32.1 µM (inactive) with OVCAR-8. In addition, the GI50 was 17.7 µM (inactive) in the test on KM12; 18.7 µM (inactive) in the test on SK-MEL-5; 11.7 µM (inactive) with HL-60; 17.4 µM (inactive) in the test with NCI/ADR-RES; > 100 µM (inactive) in the test with DU-145; 31.8 µM (inactive) with MCF7. The GI50 in the test on SNB-75 is > 100 µM (inactive); in the test on NCI-H460 it was 40 µM (inactive); in the test with A498, > 100 µM (inactive); in the test on NCI-H522, 37.2 µM (inactive); in the test with EKVX, > 100 µM (inactive); with SN12C, 21.6 µM (inactive). Besides, the GI50 in the test with SK-MEL-28 was > 100 µM (inactive).

Take `CCOC(=O)NC(Nc1ccc(OC(F)(F)F)cc1)(C(F)(F)F)C(F)(F)F`: the GI50 with MDA-MB-435 is > 100 µM (inactive); in the test with HCT-15, over 100 µM; in the test on NCI-H226 it was > 100 µM (inactive); in the test with HCC 2998, > 100 µM (inactive); in the test on SK-OV-3, > 100 µM (inactive); with OVCAR-8, > 100 µM (inactive). Also, the GI50 with KM12, with SK-MEL-5, in the test on HL-60, in the test with NCI/ADR-RES, in the test on DU-145 and in the test on MCF7 was > 100 µM (inactive) each time. Also, the GI50 in the test on SNB-75, in the test with NCI-H460, with A498, with NCI-H522, in the test on EKVX and in the test on SN12C was > 100 µM (inactive) each time. Besides, in the test on SK-MEL-28, the GI50 was > 100 µM (inactive).

With `O=C1C(Cl)=CC2(C=C1Cl)CCNC1=C2C(=O)c2nc[nH]c2C1=O`, the GI50 in the test on MDA-MB-435 was 18.2 µM (inactive); in the test on HCT-15, 46 µM; in the test with NCI-H226, 75.2 µM (inactive); with HCC 2998, 39.4 µM (inactive); with SK-OV-3, > 100 µM (inactive); in the test on OVCAR-8, 32.9 µM (inactive). Besides, the GI50 in the test on KM12 was 43.4 µM (inactive); in the test with SK-MEL-5, 16.6 µM (inactive); with HL-60 it was 24.4 µM (inactive); in the test with NCI/ADR-RES it was > 100 µM (inactive); in the test on DU-145 it was > 100 µM (inactive); with MCF7 it was 22.3 µM (inactive). Further, the GI50 in the test with SNB-75 is 97.5 µM (inactive); in the test with NCI-H460, 40.3 µM (inactive); with A498, 36.6 µM (inactive); in the test with NCI-H522, 21.1 µM (inactive); in the test with EKVX, 51.8 µM (inactive); in the test on SN12C, 36.5 µM (inactive). Further, in the test with SK-MEL-28, the GI50 is 33.7 µM (inactive).
